Assay [1] has as its system Haemophilus influenzae 76. Nature of the assay: MIC, standard agar-dilution assay. The following applies: Haemophilus influenzae 76, ampicillin-resistant strain. In kind it is cell-based.
Assay [2] relates to Staphylococcus aureus V41. Nature of the assay: MIC, standard agar-dilution assay. The assay is classed as cell-based. As to conditions: Staphylococcus aureus V41, penicillin-resistant strain; agar dilution. A general note: Agar dilution tests growth on a series of plates holding different concentrations.
Assay [3] deals with Staphylococcus aureus X400. Nature of the assay: MIC, standard agar-dilution assay. As to conditions: Staphylococcus aureus X400, methicillin-resistant strain. In kind it is cell-based.
In the next assay the test system is Streptococcus Group 9960. Nature of the assay: MIC, standard agar-dilution assay. In kind it is cell-based. The following applies: Streptococcus Group 9960; agar dilution.
A further assay has as its system Streptococcus pneumoniae. Nature of the assay: ED50 in experimentally infected mice. In kind it is in vivo. The following applies: mice infected with Streptococcus pneumoniae; administered subcutaneously 1 and 4 hours postinfection. How it is done:
(§1) Some of the derivatives of this invention have shown in vivo antimicrobial activity against experimentally-induced infections in laboratory animals. When two doses of test compound were administered to experimentally infected mice, the activity observed was measured as an ED50 value [effective dose in mg/kg to protect 50% of the test animals: see Warren Wick, et al., J. Bacteriol. 81, 233-235 (1961)].
(§2) ^a mg/kg × 2; administered subcutaneously 1 and 4 hours

In the next assay the test system is Streptococcus pyogenes. Nature of the assay: ED50 in experimentally infected mice. The assay is classed as in vivo. The following applies: mice infected with Streptococcus pyogenes; administered subcutaneously 1 and 4 hours postinfection. The procedure: as §1, §2
Assay [4] relates to Haemophilus influenzae C.L. Nature of the assay: MIC, standard agar-dilution assay. The assay is classed as cell-based. The following applies: ampicillin-sensitive strain.
The subject of assay [5] is Streptococcus pyogenes C203. Nature of the assay: MIC, standard agar-dilution assay. The assay is classed as cell-based. The following applies: Streptococcus pyogenes C203; agar dilution.
Assay [6] concerns Streptococcus pneumoniae Park I. In kind it is cell-based. The following applies: agar dilution.
Assay [7] has as its system Staphylococcus aureus X1.1. Nature of the assay: MIC, standard agar-dilution assay. In kind it is cell-based. As to conditions: Staphylococcus aureus X1.1; agar dilution.
Assay [8] deals with Staphylococcus epidermidis EPI2. Nature of the assay: MIC, standard agar-dilution assay. In kind it is cell-based.
The next assay relates to Staphylococcus aureus. Nature of the assay: ED50 in experimentally infected mice. The following applies: mice infected with Staphylococcus aureus; administered subcutaneously 1 and 4 hours postinfection. The assay is classed as in vivo.
Assay [9] concerns Streptococcus Group D X66. Nature of the assay: MIC, standard agar-dilution assay. The assay is classed as cell-based. As to conditions: Streptococcus Group D X66; agar dilution.
Assay [10] relates to Staphylococcus aureus S13E. The assay is classed as cell-based. The following applies: agar dilution.
Assay [11] has as its system Staphylococcus epidermidis EPI1. In kind it is cell-based. As to conditions: Staphylococcus epidermidis EPI1; agar dilution.

A value given as a limit tells only on which side of the number the result lay.

MIC and ED50 data for 9 substances are collected here from patent US4497802A, “N-Acyl glycopeptide derivatives” (Eli Lilly and Company, priority 1983, dated 1985).

For the substance “N--(3,5-dichlorobenzoyl)A41030A [Example 22]”, the MIC was 8 µg/mL in [1]; 0.125 µg/mL in [2]; 0.25 µg/mL in [3]; 0.5 µg/mL in the assay on Streptococcus Group 9960; 16 µg/mL in assay [4]; 0.5 µg/mL in assay [5]. Further, the MIC in [6] stood at 0.5 µg/mL; in assay [7], 0.125 µg/mL; in assay [8] it was 0.25 µg/mL; in assay [9], 0.5 µg/mL; in assay [10], 0.25 µg/mL; in [11], 0.125 µg/mL. The ED50 is recorded as 41 mg/kg × 2 with Streptococcus pneumoniae, more than 10 mg/kg × 2 in the assay on Streptococcus pyogenes and less than 0.31 mg/kg × 2 in the assay with Staphylococcus aureus.
With “N--(11-aminoundecanoyl)A35512B [Example 7]”, the MIC result in assay [1] was “-- (Compound not active at less than 128 mcg/ml)”; in assay [2], 4 µg/mL; in assay [3] it was 8 µg/mL; in the assay on Streptococcus Group 9960 it was 4 µg/mL; in assay [4], “-- (Compound not active at less than 128 mcg/ml)”; in assay [5], 2 µg/mL. Also, the MIC in assay [6] came to 4 µg/mL; in [7], 4 µg/mL; in assay [8] it was 16 µg/mL; in assay [9], 4 µg/mL; in assay [10] it was 4 µg/mL; in assay [11] it was 8 µg/mL. Besides, the ED50 in the assay on Staphylococcus aureus turned out to be 4.5 mg/kg × 2.
On to “N--[4-(N,N--dimethylamino)benzoyl]A41030A [Example 18]”, for which the MIC in [1] is 64 µg/mL; in [2] it was 0.5 µg/mL; in assay [3], 0.5 µg/mL; in the assay with Streptococcus Group 9960, 2 µg/mL; in [4], “-- (Compound not active at less than 128 mcg/ml)”; in assay [5], 1 µg/mL. Moreover, the MIC was 0.5 µg/mL in assay [6]; 0.25 µg/mL in [7]; 0.5 µg/mL in assay [8]; 1 µg/mL in [9]; 0.25 µg/mL in [10]; 0.25 µg/mL in assay [11]. Besides, the ED50 was more than 10 mg/kg × 2 in the assay with Streptococcus pneumoniae, more than 10 mg/kg × 2 with Streptococcus pyogenes and 0.46 mg/kg × 2 with Staphylococcus aureus.
Turning to N--(nonanoyl)A41030A [Example 19], the MIC in assay [1] is 16 µg/mL; in [2] it was 0.25 µg/mL; in assay [3] it was 0.25 µg/mL; in the assay with Streptococcus Group 9960, 0.25 µg/mL; in assay [4], 32 µg/mL; in assay [5] it was 0.5 µg/mL. The MIC amounted to 0.5 µg/mL in [6]; 0.125 µg/mL in assay [7]; 0.25 µg/mL in assay [8]; 0.25 µg/mL in [9]; 0.25 µg/mL in [10]; 0.125 µg/mL in assay [11]. For the same substance, the ED50 with Streptococcus pneumoniae is listed as more than 10 mg/kg × 2; in the assay with Streptococcus pyogenes it was more than 10 mg/kg × 2; with Staphylococcus aureus, less than 0.31 mg/kg × 2.
N--(L-phenylalanyl)A41030A [Example 17]: the MIC in assay [1] was determined as 16 µg/mL; in [2], 0.125 µg/mL; in [3], 0.125 µg/mL; with Streptococcus Group 9960, 0.125 µg/mL; in assay [4], 8 µg/mL; in [5] it was 0.125 µg/mL. Besides, the MIC in assay [6] came out at 0.125 µg/mL; in [7] it was 0.125 µg/mL; in [8] it was 0.125 µg/mL; in assay [9], 0.5 µg/mL; in [10] it was 0.125 µg/mL; in assay [11] it was 0.125 µg/mL. Also, the ED50 in the assay with Streptococcus pneumoniae is 8.52 mg/kg × 2; in the assay on Streptococcus pyogenes it was more than 10 mg/kg × 2; in the assay on Staphylococcus aureus, 0.08 mg/kg × 2.
For “N--[p-(octyloxy)benzoyl]A47934 [Example 26]”, the MIC in assay [1] turned out to be 4 µg/mL; in [2] it was 0.25 µg/mL; in assay [3], 0.5 µg/mL; against Streptococcus Group 9960, 1 µg/mL; in [4], 8 µg/mL; in [5], 0.5 µg/mL. The MIC in assay [6] was 0.5 µg/mL; in [7], 0.125 µg/mL; in assay [8], 0.5 µg/mL; in assay [9] it was 0.5 µg/mL; in [10] it was 0.25 µg/mL; in [11], 0.125 µg/mL. Further, the ED50 in the assay with Streptococcus pneumoniae was more than 10 mg/kg × 2; in the assay on Streptococcus pyogenes it was more than 10 mg/kg × 2; with Staphylococcus aureus it was 3.6 mg/kg × 2.
With “N--[(1-tetrazole)acetyl]A35512B [Example 10]”, the MIC result was “-- (Compound not active at less than 128 mcg/ml)” in assay [1]; 4 µg/mL in assay [2]; 8 µg/mL in assay [3]; 8 µg/mL in the assay with Streptococcus Group 9960; “-- (Compound not active at less than 128 mcg/ml)” in [4]; 2 µg/mL in [5]. The MIC in assay [6] was determined as 4 µg/mL; in assay [7], 4 µg/mL; in assay [8], 16 µg/mL; in assay [9], 8 µg/mL; in assay [10], 4 µg/mL; in assay [11] it was 4 µg/mL. Besides, the ED50 in the assay with Staphylococcus aureus stood at 5.7 mg/kg × 2.
In the case of N--(lauroyl)A41030A [Example 20], the MIC in assay [1] came out at 32 µg/mL; in assay [2], 0.5 µg/mL; in [3] it was 1 µg/mL; against Streptococcus Group 9960, 0.5 µg/mL; in assay [4], 32 µg/mL; in assay [5] it was 1 µg/mL. Also, the MIC in [6] was 1 µg/mL; in assay [7], 0.5 µg/mL; in assay [8], 0.5 µg/mL; in assay [9], 0.5 µg/mL; in assay [10] it was 0.5 µg/mL; in assay [11], 0.5 µg/mL. The ED50 is recorded as more than 10 mg/kg × 2 in the assay with Streptococcus pneumoniae, more than 10 mg/kg × 2 in the assay with Streptococcus pyogenes and 0.6 mg/kg × 2 in the assay with Staphylococcus aureus.
N--(L-phenylalanyl)A47934 [Example 24]: the MIC was determined as 4 µg/mL in [1]; 0.06 µg/mL in assay [2]; 0.25 µg/mL in [3]; 1 µg/mL in the assay on Streptococcus Group 9960; 4 µg/mL in [4]; 0.25 µg/mL in [5]. The MIC in [6] was determined as 0.06 µg/mL; in [7], 0.06 µg/mL; in assay [8], 0.25 µg/mL; in [9] it was 0.5 µg/mL; in assay [10] it was 0.06 µg/mL; in assay [11], 0.125 µg/mL. For the same substance, in the assay with Staphylococcus aureus, the ED50 is less than 0.31 mg/kg × 2.
